Test results published in patent US20250255867A1 (Kadmon Corporation, LLC, priority 2022, published 2025).

Details: Cohort 2 200 mg BID

SMILES: CC(C)NC(=O)COc1cccc(-c2nc(Nc3ccc4[nH]ncc4c3)c3ccccc3n2)c1 [Belumosudil, 2-{3-[4-(1H-indazol-5-ylamino)-2-quinazolinyl]phenoxy}-N-(propan-2-yl) acetamide]
- Conjunctivitis: Affected/At Risk (%): (6.25%)
- Constipation: # Events: 1
- Constipation: Affected/At Risk: 1/16
- Constipation: Affected/At Risk (%): (6.25%)
- Contrast media allergy: # Events: 2
- Contrast media allergy: Affected/At Risk: 2/16
- Contrast media allergy: Affected/At Risk (%): (12.5%)
- Contusion: # Events: 2
- Contusion: Affected/At Risk: 2/16
- Contusion: Affected/At Risk (%): (12.5%)
- Corneal abrasion: # Events: 0
- Corneal abrasion: Affected/At Risk: 0/16
- Corneal abrasion: Affected/At Risk (%): (0%)
- Corneal infection: # Events: 2
- Corneal infection: Affected/At Risk: 1/16
- Corneal infection: Affected/At Risk (%): (6.25%)
- Cough: # Events: 5
- Cough: Affected/At Risk: 4/16
- Cough: Affected/At Risk (%): (25%)
- Decreased appetite: # Events: 2
- Decreased appetite: Affected/At Risk: 2/16
- Decreased appetite: Affected/At Risk (%): (12.5%)
- Dehydration: # Events: 4
- Dehydration: Affected/At Risk: 3/16
- Dehydration: Affected/At Risk (%): (18.75%)
- Depression: # Events: 4
- Depression: Affected/At Risk: 4/16
- Depression: Affected/At Risk (%): (25%)
- Diarrhoea: # Events: 10
- Diarrhoea: Affected/At Risk: 5/16
- Diarrhoea: Affected/At Risk (%): (31.25%)
- Dizziness: # Events: 4
- Dizziness: Affected/At Risk: 1/16
- Dizziness: Affected/At Risk (%): (6.25%)
- Drug eruption: # Events: 1
- Drug eruption: Affected/At Risk: 1/16
- Drug eruption: Affected/At Risk (%): (6.25%)
- Dry eye: # Events: 4
- Dry eye: Affected/At Risk: 4/16
- Dry eye: Affected/At Risk (%): (25%)
- Dry skin: # Events: 0
- Dry skin: Affected/At Risk: 0/16
- Dry skin: Affected/At Risk (%): (0%)
- Dyspepsia: # Events: 2
- Dyspepsia: Affected/At Risk: 2/16
- Dyspepsia: Affected/At Risk (%): (12.5%)
- Dysphagia: # Events: 4
- Dysphagia: Affected/At Risk: 3/16
- Dysphagia: Affected/At Risk (%): (18.75%)
- Dyspnoea exertional: # Events: 0
- Dyspnoea exertional: Affected/At Risk: 0/16
- Dyspnoea exertional: Affected/At Risk (%): (0%)
- Dyspnoea: # Events: 7
- Dyspnoea: Affected/At Risk: 5/16
- Dyspnoea: Affected/At Risk (%): (31.25%)
- Embolism: # Events: 0
- Embolism: Affected/At Risk: 0/16
- Embolism: Affected/At Risk (%): (0%)
- Enamel anomaly: # Events: 1
- Enamel anomaly: Affected/At Risk: 1/16
- Enamel anomaly: Affected/At Risk (%): (6.25%)
- Epidural lipomatosis: # Events: 0
- Epidural lipomatosis: Affected/At Risk: 0/16
- Epidural lipomatosis: Affected/At Risk (%): (0%)
- Epstein-Barr virus infection: # Events: 0
- Epstein-Barr virus infection: Affected/At Risk: 0/16
- Epstein-Barr virus infection: Affected/At Risk (%): (0%)
- Erectile dysfunction: # Events: 0
- Erectile dysfunction: Affected/At Risk: 0/16
- Erectile dysfunction: Affected/At Risk (%): (0%)
- Eye irritation: # Events: 0
- Eye irritation: Affected/At Risk: 0/16
- Eye irritation: Affected/At Risk (%): (0%)
- Eye pain: # Events: 4
- Eye pain: Affected/At Risk: 2/16
- Eye pain: Affected/At Risk (%): (12.5%)
- Eye pruritus: # Events: 1
- Eye pruritus: Affected/At Risk: 1/16
- Eye pruritus: Affected/At Risk (%): (6.25%)
- Fall: # Events: 1
- Fall: Affected/At Risk: 1/16
- Fall: Affected/At Risk (%): (6.25%)
- Fatigue: # Events: 7
- Fatigue: Affected/At Risk: 3/16
- Fatigue: Affected/At Risk (%): (18.75%)
- Flatulence: # Events: 2
- Flatulence: Affected/At Risk: 1/16
- Flatulence: Affected/At Risk (%): (6.25%)
- Flushing: # Events: 1
- Flushing: Affected/At Risk: 1/16
- Flushing: Affected/At Risk (%): (6.25%)
- Fungal infection: # Events: 0
- Fungal infection: Affected/At Risk: 0/16
- Fungal infection: Affected/At Risk (%): (0%)
- Gamma-glutamyltransferase increased: # Events: 4
- Gamma-glutamyltransferase increased: Affected/At Risk: 4/16
- Gamma-glutamyltransferase increased: Affected/At Risk (%): (25%)
- Gastric ulcer: # Events: 1
- Gastric ulcer: Affected/At Risk: 1/16
- Gastric ulcer: Affected/At Risk (%): (6.25%)
- Gastrooesophageal reflux disease: # Events: 1
- Gastrooesophageal reflux disease: Affected/At Risk: 1/16
- Gastrooesophageal reflux disease: Affected/At Risk (%): (6.25%)
- Generalised oedema: # Events: 0
- Generalised oedema: Affected/At Risk: 0/16
- Generalised oedema: Affected/At Risk (%): (0%)
- Genital infection fungal: # Events: 1
- Genital infection fungal: Affected/At Risk: 1/16
- Genital infection fungal: Affected/At Risk (%): (6.25%)
- Glaucoma: # Events: 1
- Glaucoma: Affected/At Risk: 1/16
- Glaucoma: Affected/At Risk (%): (6.25%)
- Glucose urine present: # Events: 0
- Glucose urine present: Affected/At Risk: 0/16
- Glucose urine present: Affected/At Risk (%): (0%)
- Graft versus host disease in gastrointestinal tract: # Events: 0
- Graft versus host disease in gastrointestinal tract: Affected/At Risk: 0/16
- Graft versus host disease in gastrointestinal tract: Affected/At Risk (%): (0%)
- Gynaecomastia: # Events: 1
- Gynaecomastia: Affected/At Risk: 1/16
- Gynaecomastia: Affected/At Risk (%): (6.25%)
- Haematuria: # Events: 1
- Haematuria: Affected/At Risk: 1/16
- Haematuria: Affected/At Risk (%): (6.25%)
- Hair growth abnormal: # Events: 0
- Hair growth abnormal: Affected/At Risk: 0/16
- Hair growth abnormal: Affected/At Risk (%): (0%)
- Headache: # Events: 3
- Headache: Affected/At Risk: 3/16
- Headache: Affected/At Risk (%): (18.75%)
- Hodgkin's disease recurrent: # Events: 0
- Hodgkin's disease recurrent: Affected/At Risk: 0/16
- Hodgkin's disease recurrent: Affected/At Risk (%): (0%)
- Hordeolum: # Events: 0
- Hordeolum: Affected/At Risk: 0/16
- Hordeolum: Affected/At Risk (%): (0%)
- Hot flush: # Events: 0
- Hot flush: Affected/At Risk: 0/16
- Hot flush: Affected/At Risk (%): (0%)
- Hyperglycemia: # Events: 0
- Hyperglycemia: Affected/At Risk: 0/16
- Hyperglycemia: Affected/At Risk (%): (0%)
- Hyperhidrosis: # Events: 1
- Hyperhidrosis: Affected/At Risk: 1/16
- Hyperhidrosis: Affected/At Risk (%): (6.25%)
- Hyperkalaemia: # Events: 2
- Hyperkalaemia: Affected/At Risk: 2/16
- Hyperkalaemia: Affected/At Risk (%): (12.5%)
- Hypertension: # Events: 5
- Hypertension: Affected/At Risk: 2/16
- Hypertension: Affected/At Risk (%): (12.5%)
- Hyperthyroidism: # Events: 1
- Hyperthyroidism: Affected/At Risk: 1/16
- Hyperthyroidism: Affected/At Risk (%): (6.25%)
- Hypertriglyceridaemia: # Events: 1
- Hypertriglyceridaemia: Affected/At Risk: 1/16
- Hypertriglyceridaemia: Affected/At Risk (%): (6.25%)
- Hyperuricaemia: # Events: 2
- Hyperuricaemia: Affected/At Risk: 1/16
- Hyperuricaemia: Affected/At Risk (%): (6.25%)
- Hypoaesthesia: # Events: 0
- Hypoaesthesia: Affected/At Risk: 0/16
- Hypoaesthesia: Affected/At Risk (%): (0%)
- Hypocalcaemia: # Events: 4
- Hypocalcaemia: Affected/At Risk: 1/16
- Hypocalcaemia: Affected/At Risk (%): (6.25%)
- Hypogonadism: # Events: 0
- Hypogonadism: Affected/At Risk: 0/16
- Hypogonadism: Affected/At Risk (%): (0%)
- Hypokalaemia: # Events: 3
- Hypokalaemia: Affected/At Risk: 2/16
- Hypokalaemia: Affected/At Risk (%): (12.5%)
- Hypomagnesaemia: # Events: 1
- Hypomagnesaemia: Affected/At Risk: 1/16
- Hypomagnesaemia: Affected/At Risk (%): (6.25%)
- Hyponatraemia: # Events: 0
- Hyponatraemia: Affected/At Risk: 0/16
- Hyponatraemia: Affected/At Risk (%): (0%)
- Hypophosphataemia: # Events: 1
- Hypophosphataemia: Affected/At Risk: 1/16
- Hypophosphataemia: Affected/At Risk (%): (6.25%)
- Hypothermia: # Events: 1
- Hypothermia: Affected/At Risk: 1/16
- Hypothermia: Affected/At Risk (%): (6.25%)
- Hypothyroidism: # Events: 2
- Hypothyroidism: Affected/At Risk: 1/16
- Hypothyroidism: Affected/At Risk (%): (6.25%)
- Hypoxia: # Events: 5
- Hypoxia: Affected/At Risk: 2/16
- Hypoxia: Affected/At Risk (%): (12.5%)
- Impaired healing: # Events: 0
- Impaired healing: Affected/At Risk: 0/16
- Impaired healing: Affected/At Risk (%): (0%)
- Influenza like illness: # Events: 2
- Influenza like illness: Affected/At Risk: 1/16
- Influenza like illness: Affected/At Risk (%): (6.25%)
- Influenza: # Events: 2
- Influenza: Affected/At Risk: 1/16
- Influenza: Affected/At Risk (%): (6.25%)
- Insomnia: # Events: 0
- Insomnia: Affected/At Risk: 0/16
- Insomnia: Affected/At Risk (%): (0%)
- Irritability: # Events: 0
- Irritability: Affected/At Risk: 0/16
- Irritability: Affected/At Risk (%): (0%)
- Joint range of motion decreased: # Events: 1
- Joint range of motion decreased: Affected/At Risk: 1/16
- Joint range of motion decreased: Affected/At Risk (%): (6.25%)
- Lacrimation increased: # Events: 1
- Lacrimation increased: Affected/At Risk: 1/16
- Lacrimation increased: Affected/At Risk (%): (6.25%)
- Leukaemia recurrent: # Events: 0
- Leukaemia recurrent: Affected/At Risk: 0/16
- Leukaemia recurrent: Affected/At Risk (%): (0%)
- Leukocytosis: # Events: 0
- Leukocytosis: Affected/At Risk: 0/16
- Leukocytosis: Affected/At Risk (%): (0%)
- Ligament sprain: # Events: 0
- Ligament sprain: Affected/At Risk: 0/16
- Ligament sprain: Affected/At Risk (%): (0%)
- Limb injury: # Events: 0
- Limb injury: Affected/At Risk: 0/16
- Limb injury: Affected/At Risk (%): (0%)
- Macular degeneration: # Events: 1
- Macular degeneration: Affected/At Risk: 1/16
- Macular degeneration: Affected/At Risk (%): (6.25%)
- Migraine: # Events: 1
- Migraine: Affected/At Risk: 1/16
- Migraine: Affected/At Risk (%): (6.25%)
- Muscle spasms: # Events: 0
- Muscle spasms: Affected/At Risk: 0/16
- Muscle spasms: Affected/At Risk (%): (0%)
- Muscle spasticity: # Events: 0
- Muscle spasticity: Affected/At Risk: 0/16
- Muscle spasticity: Affected/At Risk (%): (0%)
- Muscular weakness: # Events: 1
- Muscular weakness: Affected/At Risk: 1/16
- Muscular weakness: Affected/At Risk (%): (6.25%)
- Musculoskeletal chest pain: # Events: 0
- Musculoskeletal chest pain: Affected/At Risk: 0/16
- Musculoskeletal chest pain: Affected/At Risk (%): (0%)
- Myalgia: # Events: 1
- Myalgia: Affected/At Risk: 1/16
- Myalgia: Affected/At Risk (%): (6.25%)
- Nail disorder: # Events: 0
- Nail disorder: Affected/At Risk: 0/16
- Nail disorder: Affected/At Risk (%): (0%)
- Nausea: # Events: 6
- Nausea: Affected/At Risk: 4/16
- Nausea: Affected/At Risk (%): (25%)
- Neck pain: # Events: 0
- Neck pain: Affected/At Risk: 0/16
- Neck pain: Affected/At Risk (%): (0%)
- Nephrotic syndrome: # Events: 1
- Nephrotic syndrome: Affected/At Risk: 1/16
- Nephrotic syndrome: Affected/At Risk (%): (6.25%)
- Neuropathy peripheral: # Events: 1
- Neuropathy peripheral: Affected/At Risk: 1/16
- Neuropathy peripheral: Affected/At Risk (%): (6.25%)
- Neutrophil count decreased: # Events: 0
- Neutrophil count decreased: Affected/At Risk: 0/16
- Neutrophil count decreased: Affected/At Risk (%): (0%)
- Nocturia: # Events: 0
- Nocturia: Affected/At Risk: 0/16
- Nocturia: Affected/At Risk (%): (0%)
- Non-cardiac chest pain: # Events: 3
- Non-cardiac chest pain: Affected/At Risk: 3/16
- Non-cardiac chest pain: Affected/At Risk (%): (18.75%)
- Obesity: # Events: 0
- Obesity: Affected/At Risk: 0/16
- Obesity: Affected/At Risk (%): (0%)
- Oedema peripheral: # Events: 5
- Oedema peripheral: Affected/At Risk: 4/16
- Oedema peripheral: Affected/At Risk (%): (25%)
